US8524744B2, “Arylamine ketones, their preparation methods, the pharmaceutical composition containing them and their use” (Institute of Mataria Medica, Chinese Academy of Medical …, priority 2004, dated 2013)
Structures can show the parent of a compound that is named as a salt.

Legend:
[1] = tested on: polymorphonuclear leucocytes from rat pleural cavity; assay: release of β-glucuronidase by polymorphonuclear leucocytes from rat pleural cavity in vitro (PAF as irritant); format: cell-based
In short: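 Carrageenan-elicited pleural PMNs from Wistar rats (2.5×10^6 cells/ml, Dulbecco's buffer) were incubated with compound 15 min at 37° C, then cytochalasin B 5 min, then PAF 5 min. β-Glucuronidase in supernatant was assayed with phenolphthalein-glucuronic acid, 18 h at 37° C, OD 550 nm after NaOH.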

[2] = molecular target: T1, PAF receptors of rat polymorphonuclear leucocytes (Rattus norvegicus, UniProt P46002); assay: competitive binding of [3H]-PAF to its receptors of rat polymorphonuclear leucocytes; conditions: 37° C., 30 min, read-out: IC50, competition with [3H]-PAF binding
T1 construct: The suspension of rat polymorphonuclear leucocytes was prepared; endogenous in cells; host or cells: rat polymorphonuclear leucocytes (primary, whole-cell suspension)
T1 sequence (P46002 whole entry): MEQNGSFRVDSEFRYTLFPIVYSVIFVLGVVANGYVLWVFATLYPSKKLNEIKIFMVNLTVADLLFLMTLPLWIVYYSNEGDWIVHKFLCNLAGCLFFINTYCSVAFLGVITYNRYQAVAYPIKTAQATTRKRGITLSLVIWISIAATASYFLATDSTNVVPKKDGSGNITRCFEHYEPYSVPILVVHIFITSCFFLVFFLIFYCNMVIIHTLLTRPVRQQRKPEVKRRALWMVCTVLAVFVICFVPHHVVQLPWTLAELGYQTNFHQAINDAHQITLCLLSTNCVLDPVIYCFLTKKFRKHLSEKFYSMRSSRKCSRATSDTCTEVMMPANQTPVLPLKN
Experimental: The suspension of rat polymorphonuclear leucocytes was prepared. 240 μl of cells suspension (2×10^6cells·ml^−1), 5 μl of [^3H](5 μmol·L^1) were added into each well. 5 μl of unlabeled PAF (5 μl mol·L^−1)was added into the well for the nonspecific binding. The series concentrations of compound were added into the well for the competitive binding and the corresponding volume of solvent was added into the wells for the total binding or the nonspecific binding. The reaction was kept in water bath at 37° C. for 30 min and stopped by ice bath. Reaction fluid was filtrated using the filter membrane which was rinsed by cold buffer to separate the free labeled ligand. The filter membrane was dried at 80° C. and placed into a vial for scintillation in which 5 ml of scintillation agent was poured. The radioactivity strength was measured by scintillation counter.

rat neutrophils = assay: chemotaxis of rat neutrophils in vitro; format: cell-based; conditions: Neutrophil, 4 hr, read-out: IC50, inhibition of chemotaxis
Experimental: The blood was collected from rat common carotid artery and anticoagulated. The neutrophils was isolated by 5% glucose solution and lymphocyte separating medium. 27 μl of irritant was added into the well at low part of the chemotaxis plate. The filter membrane was covered on the wells and the top part of the plate was assembled on the filter. 50 μl of cells suspension with various concentrations of compound or solvent was added into the well at top part of the plate. The plate was incubated at 37° C. for 4 hr. The filter was taken out, stained by hematoxylin and dehydrated. The cells migrated into the other side of the filter was counted by microscope.

[3] = tested on: intracellular calcium level of rat polymorphonuclear leucocytes; assay: increase of intracellular calcium level of rat polymorphonuclear leucocytes (Fura-2/AM, PAF); format: cell-based; conditions: Leucocyte, read-out: IC50, inhibition of the increase of intracellular calcium level
Experimental: 1% carrageenan was used to induce polymorphonuclear leucocytes from rat peritoneal cavity. The Fura-2/AM (final concentration: 3×10^−6 mol·L^−1) was added into cells suspension. 1 ml of cells suspension was added into the test tube with compound or solvent. The test tubes were placed in a shaking waterbath at 37° C. for 45 min. Then the test tubes were cooled at room temperature for 15 min. The cells were rinsed twice using HBSS to discarded Fura-2/AM remained in outside of the cells. The suspension of cells loaded with Fura-2/AM was added into the absorbent chamber of fluorospectrometer. The cells were kept to suspend at 37° C. and the fluorescence strength was measured at resting condition or after 20μl of PAF (1×10^−4 mol·L^−1), 20 μl of 10% Triton X-100 and 100 μl EGTA (500 mmol·L−1) was added, respectively. The changes of the intracellular level of calcium at the resting condition or after irritants were added was calculated by program for Ca^2+ measurement.

[4] = tested on: mouse ear edema induced by croton oil; assay: mouse ear edema induced by croton oil; format: in vivo; conditions: orally, 50 mg·kg^−1, Kunming mice
Experimental: Kuming mice (male, 18-22 g) were randomly divided into two groups (treatment and control) with 10 animals for each group. The animals were orally administrated with compounds or solvent, respectively. 1 hr later, 50 μl of 2% croton oil was smeared on the two sides of mouse left ear. After 4 hr the mice were sacrificed by cervical vertebra displacement. The two ears were cut off and the central sections were excised using a punch with a diameter of 8 mm and weighed. Edema was quantified as the weight difference between the two sections.

[5] = tested on: mouse paw swelling induced by carrageenan; assay: mouse paw swelling induced by carrageenan; format: in vivo; conditions: orally, 50 mg·kg^−1, Kunming mice
Experimental: Kunming mice (male, 18-22 g) were randomly divided into two groups (treatment and control) with 10 animals for each group. The animals were orally administrated with compounds or solvent, respectively. 1 hr later, 50 μl of 1% carrageenan was intracutaneously injected into the sole of right posterior foot. After 4 hr the animals were sacrificed by displacing cervical vertebra. The two paws were cut off at ankle joint and weighed. The swelling was evaluated by the difference of the weights of two paws.

[6] = tested on: cutaneous vascular permeability in mice induced by PAF; assay: increase of cutaneous vascular permeability in mice induced by PAF; format: in vivo, mouse; conditions: orally, 50 mg·kg^−1, Kunming mice
Experimental: Kunming mice (male, 18-22 g) were randomly divided into two groups (treatment and control) with 10 animals for each group. The animals were orally administrated with the compounds or solvent, respectively. 1 hr later, 0.25 ml of 1% evans blue dye was injected into the tail vein. After 10 min, 0.1 ml of PAF (1×10^−8 mol·L^−1) was intracutaneously injected into the dorsal skin shaved. 1 hr later, the animals were sacrificed by cervical vertebra displacement. The skin with blue spot was cut off. The evans blue dye was extracted by 0.8 ml of mixed solution of acetone and normal saline (7:3). The supernatant was transferred into the 96-well plate. The optical density was measured at 620 nm.

IC50 [2]: 55 µM
IC50 (rat neutrophils): 0.335 µM
IC50 [3]: 5.16 µM
SMILES: O=C(C=Cc1ccc(C(F)(F)F)cc1)CCN1CCC(Cc2ccccc2)CC1 [Compound 20, 5-[(4-Benzyl)piperidyl]-1-(4-trifluoromethylphenyl)-1-penten-3-one hydrochloride]
Inhibition (%) of β-glucuronidase release ([1]; Dose 1 × 10^−5 mol · L^−1, Irritant 1 × 10^−6 mol · L^−1): 104.03%
IC50 ([1]; Leucocyte, rat polymorphonuclear leucocytes): 0.308 µM
Inhibition (%) of mouse ear edema [4]: 27.66%
Inhibition (%) of mouse paw swelling [5]: 21.46%
Inhibition (%) of increase of cutaneous vascular permeability [6]: 55.78%
